The source of these data is article PMC5458179, “Oxidative DNA double strand breaks and autophagy in the antitumor effect of sterically hindered platinum(II) complexes in NSCLCs” (Oncotarget, 2017).

What all share (assay type): cell-based, human
One experiment concerns p-XRCC1. The experiment in a line: Immunostaining of SSB repair protein. The note with it: A549, 10 μM, 24 h. An excerpt: The serine 139-phosphorylated form of chromatin-associated histone H2AX, namely γ-H2AX, is a key marker of cellular response to DDR, particularly DSBs. […] Obviously, pre-treatment of NAC could considerably alleviate the DDR triggered by complex 3 (Figure 5B). Therefore, we came to a conclusion that complex 3 caused DDR especially DSBs in A549 cells, which might happen after the increased level of intracellular ROS. In order to reveal the mechanisms underlying the enhanced DNA damage, complex 3 was studied to learn whether it could reduce the activation of DNA repair response including the co-localization of DSB repair protein MDC1/Aprataxin within nucleus. […] In order to reveal the mechanisms underlying DNA damage, complex 3 was studied to detect whether it could suppress the activation of DNA single strand break repair via the phosphorylation of SSB repair mediator/adaptor proteins XRCC1 within nucleus.
For assessment of DSBs repair kinetics we detected the total nuclear volume for an average of 50–60 nuclei per time points and cell type. Briefly, A549 cells were grown to confluence in 35 mm petri-dishes with 0.17 mm glass bottom. […] Non-specific binding was blocked by incubation with 5% FCS/PBS/0.1% Triton X-100 for 1 h at RT. […] Numbers of γH2AX foci were counted in 50–60 nuclei and plotted over time as previously described.

The test system of a further experiment is A549 cancer cells. The experiment in a line: Intracellular GSH measurement. The conditions noted are these: A549, 10 μM, 4 h. As for the experimental part: After 4 h, medium was removed and dishes were rinsed three times with cold PBS. The cells were harvested and cell numbers were counted. Then, intracellular GSH levels were measured using a GSH test kit (KeyGen KGT006). A549 and NCI-H1299 cancer cells without treatment were used as control groups.

In another experiment the test system is caspase-3. Nature of the experiment: Caspase-3 activation analysis. The conditions noted are these: A549 and NCI-H1299, 10 μM, 24 h. As for the experimental part: For the quantification of activation of caspase-3 in cancer cells, 5 × 10^5 cancer cells were seeded in a 60 mm dish and allowed to adhere for 1 day. […] As a reference control, the cells were only incubated with fresh media at 37°C. Then, the cells were washed with PBS to eliminate the remaining drugs and harvested using trypsin-EDTA. All the groups of cells were collected into microtubes following incubation with […] media containing […] of FITC-DEVD-FMK (Caspase 3(active) FITC Staining Kit (ab65613)) for 1 h at 37°C under 5% CO2. Subsequently, centrifugation of the cells was performed to collect cell pellets and washed 2 times with washing buffer. Each group of cells was resuspended with […] of the washing buffer and transferred […] per well in a microtiter plate reader. The quantification of caspase-3 was evaluated as Relative Fluorescence Unit(RFU) using Fluorophotometer (Max Gemini EM, SoftMax® Pro 5, Molecular Devices Corp., Sunnyvale, CA) at an emission wavelength of 535 nm after excitation at 485 nm. The statistical significance was evaluated with one-way ANOVA test using Graph Pad Prism 4 software.

Another experiment has as its system LC3-II. Nature of the experiment: Western blot of LC3-II. On the procedure: The role of complex 3-induced autophagy in cell death was further analyzed (Figure 6). When A549 cancer cells were treated with complex 3 of 10 μM, the protein expression of LC3-II was increased (Figure 6A). […] Treatment with complex 3 for 24 h caused a 4.5-folds increase in cells undergoing autophagy (Figure 6C). […] Moreover, Bax and Bcl-2 expressions were measured by western blot analysis of whole cell lysates.
To investigate the role of ROS in complex 3-induced cell death, the level of intracellular H2O2 was measured. […] Exposure of A549 cells to NAC reduced levels of LC3-II from 2.3- to 1.5-folds (Figure 8B). […] In parallel, the complex 3-induced increase ratio of Bax/Bcl-2 was suppressed by NAC (Figure 8E).
Lysates were centrifuged at 12,000 g for 0.5 h at 4°C. The concentrations of total proteins were measured using the BCA assay method with Varioskan spectrofluorometer and spectrophotometer (Thermo, Waltham, MA) at 562 nm. Protein (20–100 μg) prepared from the indicated cells was loaded per lane and electrophoresed in 8% or 10% sodium dodecyl sulfate polyacrylamide gel electrophoresis (SDS-PAGE), and then transferred onto polyvinylidene difluoride (PVDF) Immobilon-P membrane (Bio-Rad, USA) using a transblot apparatus (Bio-Rad, USA). The membranes were blocked with 5% (w/v) non-fat milk at 0.5 h at 37°C, followed by overnight incubation at 4°C with primary antibodies diluted in PBST. After washing with PBST, the membranes were incubated for 1 h with an IRDye´800 conjugated secondary antibody diluted 1:20000 in PBST, and the labeled proteins were detected with an Odyssey Scanning System (Li-COR., Lincoln, Nebraska, USA).

Experiment [1] deals with A549 and NCI-H1299 cancer cells. Nature of the experiment: ROS measurement (DCF fluorescence). The conditions noted are these: A549 and NCI-H1299, 10 μM. On the procedure: As excessive ROS generation is associated with cell-killing activity, we further examined whether complex 3 could also induce the formation of excessive ROS in A549 and NCI-H1299 cancer cells.
The generation of ROS induced by complex 3 was determined with the cell permeant fluorogenic probe 2′,7′-dichlorodihydrofluorescein diacetate (H2DCFDA; Molecular Probes, Invitrogen, Darmstadt, Germany) as described. H2DCFDA diffuses into the cell, where it is enzymatically converted by intracellular esterases and oxidized into the high fluorescence compound DCF, which allows the determination of H2O2, peroxynitrite anions and peroxyl radicals. Approximately 4×10^3 A549 and NCI-H1299 cancer cells per well were plated on white bottom 96-well plates in extracellular fluid ([…] NaCl, 3 mM KCl, 1 mM CaCl2, 1 mM MgCl2, 10 mM HEPES and 25 mM glucose; pH 7.4). […] Then, cells were loaded with […] H2DCFDA for 30 min at 37°C and 5% CO2. Then, cells DCF generation was measured over time using a fluorometer (Fluostar BMG Labtech, Offenburg, Germany) at 492 nm excitation and 520 nm emission.

Regarding `CC(C)C[NH+]1[C@@H]2CCCC[C@H]2[NH+](CC(C)C)[Pt-2]12[O]C(=O)CC(=O)[O]2` (stereo partly shown) [Complex 3], in the experiment with p-XRCC1, the “phosphorylation of XRCC1” value is given as “suppression of phosphorylation of XRCC1 compared with oxaliplatin”. Besides, in the experiment on A549 cancer cells, the “intracellular GSH levels” value is “did significantly reduce”. The caspase-3 activity entry with caspase-3 is on record as “high degree of caspase-3 activity compared to oxaliplatin”. In addition, the “levels of LC3-II” value in the experiment on LC3-II (A549, 10 μM complex 18 h, without NAC) is listed as 2.3 folds; with LC3-II (A549, 5 mM NAC 2 h pretreatment then 10 μM complex 18 h) it was 1.5 folds. Besides, in the experiment with LC3-II (A549, 10 μM, 24 h), the “level of LC3-II” value is 2.5 folds. Besides, the ROS production result in experiment [1] is “induced the production of significant amounts of ROS”.
